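Following 48 hours of exposure in 96-well plates, responses at five concentrations were used to interpolate endpoints linearly. GI50 marks 50% less growth.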 The source made the active and inactive calls. Cut-off read from the data, not from the text of the source: active = GI50 up to about 1.1 µM and inactive = higher.
Tests used:
Experiment in all cases: DTP human tumour cell line panel, 48 h
UACC-257 = test system: UACC-257
MOLT-4 = test system: MOLT-4
SW-620 = test system: SW-620
MDA-N = test system: MDA-N
EKVX = test system: EKVX
HCT-15 = test system: HCT-15
786-0 = test system: 786-0
UACC-62 = test system: UACC-62
ACHN = test system: ACHN
HOP-62 = test system: HOP-62
OVCAR-3 = test system: OVCAR-3
RPMI-8226 = test system: RPMI-8226
OVCAR-4 = test system: OVCAR-4
MDA-MB-435 = test system: MDA-MB-435
HCC 2998 = test system: HCC 2998
UO-31 = test system: UO-31
LOX IMVI = test system: LOX IMVI
TK-10 = test system: TK-10
NCI-H226 = test system: NCI-H226
HT-29 = test system: HT-29

SMILES	GI50 (UACC-257)	GI50 (MOLT-4)	GI50 (SW-620)	GI50 (MDA-N)	GI50 (EKVX)	GI50 (HCT-15)	GI50 (786-0)	GI50 (UACC-62)	GI50 (ACHN)	GI50 (HOP-62)	GI50 (OVCAR-3)	GI50 (RPMI-8226)	GI50 (OVCAR-4)	GI50 (MDA-MB-435)	GI50 (HCC 2998)	GI50 (UO-31)	GI50 (LOX IMVI)	GI50 (TK-10)	GI50 (NCI-H226)	GI50 (HT-29)
COc1cc2c(cc1-c1coc3cc(OCC=C(C)C)ccc3c1=O)OCO2	33.3 µM (inactive)	10.9 µM (inactive)	25.5 µM (inactive)	6.7 µM (inactive)	24.3 µM (inactive)	9.77 µM	19.9 µM (inactive)	25.6 µM (inactive)	29.3 µM (inactive)	29.8 µM (inactive)	61.2 µM (inactive)	15.3 µM (inactive)	13.5 µM (inactive)	9.25 µM (inactive)	15.4 µM (inactive)	31 µM (inactive)	19.3 µM (inactive)	48.4 µM (inactive)		
CC(C)(C)c1cc(C2=NN(c3ccccc3)C(c3ccccc3)C2)cc(C(C)(C)C)c1O (stereo unspecified)	35.2 µM (inactive)	> 100 µM (inactive)	> 100 µM (inactive)	> 100 µM (inactive)	> 100 µM (inactive)	> 100 µM	> 100 µM (inactive)	> 100 µM (inactive)	> 100 µM (inactive)	> 100 µM (inactive)	54.8 µM (inactive)	> 100 µM (inactive)	> 100 µM (inactive)	> 100 µM (inactive)		> 100 µM (inactive)	> 100 µM (inactive)	> 100 µM (inactive)	> 100 µM (inactive)	> 100 µM (inactive)
COc1ccc(N[C@H](C[S+]([O-])c2ccc(C)cc2)c2ccc(F)cc2)cc1 (stereo partly specified)	> 100 µM (inactive)	> 100 µM (inactive)	> 100 µM (inactive)	39.3 µM (inactive)	> 100 µM (inactive)	27.5 µM	65.3 µM (inactive)	34.4 µM (inactive)	52.6 µM (inactive)	33.7 µM (inactive)	> 100 µM (inactive)	> 100 µM (inactive)	94.2 µM (inactive)	> 100 µM (inactive)	> 100 µM (inactive)	> 100 µM (inactive)	> 100 µM (inactive)	> 100 µM (inactive)		> 100 µM (inactive)
